Laboratory results taken from patent US20050043260A1, “Wnt as a factor for cardiac myogenesis” (BAYLOR COLLEGE OF MEDICINE, priority 2003, published 2005).

How the values were obtained:
Assay type in all cases: cell-based
P19CL6 cells [1] = test: Cardiac-specific gene expression by QRT-PCR in differentiating P19CL6 cells; parameters: expression of Nkx2.5, GATA4, Tbx5, BMP2, BMP4: dose or concentration left out as unconfirmed
Method: (§1) Cells were grown on 10 cm dishes in α-minimal MEM; Invitrogen) supplemented with 10% fetal bovine serum (FBS) (Hyclone), streptomycin. To induce differentiation, cells were seeded at a 1:40 dilution with α-MEM, DMSO. For each experiment, cardiomyocyte differentiation was apparent in the control spontaneous beating, starting day 9 to 10. To obtain stable transformants incorporating GSK-vector control, cells were transfected using Lipofectamine2000 (Invitrogen) and medium containing 500 μg/ml Geniticin (Invitrogen). After 10-14 day, 60 colonies were picked and screened by RT-PCR. To detect exogenous GSK-3β selectively, the 5′ primer corresponded to the N terminus and the 3′ primer to the H. influenza hemagglutinin epitope tag.
RNA was isolated using TRIzol (Invitrogen). RNA (0.1 μg) was subjected to quantitative RT-PCR using the TaqMan One-step RT-PCR Master Mix Biosystems); the RT and PCR were run sequentially using a 7700 Sequence Detector (Applied Biosystems). Copy number for each transcript was expressed relative to that of glyceraldehyde-3-phosphate dehydrogenase (GAPDH), used as a constitutive control. RT-PCR for FGF8 and β-actin was done as described by Lee et al., 2000).

P19CL6 cells [2] = test: Spontaneous beating of differentiating cells
Method: as §1

[3] = tested on: TCF-dependent transcription; test: TCF-dependent transcription, TOPFLASH luciferase assay in P19CL6 cells; details: DMSO treatment for 4 days
Method: Cells were seeded and cultured as above and transfected 1 day after plating, using in serum-free αMEM for 6 hr. Transfections contained 0.5 μg TOPFLASH or 0.1 μg pRL-CMV as the co-transfected control. Medium containing 10% FBS with or without DMSO changed 6 and 48 hr after transfection. Cells were lysed 4 days after DMSO treatment and luciferase assayed using the Dual-Luciferase system (Promega). Firefly luciferase activity, indicating TCF-dependent transcription, was normalized to the Renilla luciferase activity of each extract. TOPFLASH activity induced by Wnt3A CM versus control CM was measured after 18 hr. Activity of the GSK-3βA9 expression vector was corroborated by transient transfection in 293T cells: cells were passaged at a 1:2.5 dilution into 24-well dishes, and TOPFLASH, pRL-CMV, and PGK-Wnt3A were co-transfected by calcium-phosphate precipitation along with pcDNA3-GSK-3βA9-HA versus the empty vector control (Jordan et al., 1996). Twenty-four hrs after transfection, the medium was changed to Dulbecco's modified Eagle's medium (DMEM) supplemented with 0.2% BSA. Forty-eight hrs after transfection, cells were lysed and luciferase activities were assayed.

β-catenin = β-catenin and phospho-β-catenin Western blot / immunostaining in differentiating cells
Method: (§2) Cells were seeded on glass cover slips and cultured with or without DMSO for 3 days. Cells were fixed with 4% paraformaldehyde and penneablized with 0.2% Triton X-100 for 5 min. To detect phosphorylated β-catenin, cells were incubated overnight with rabbit antibody to phoshpo-β-catenin (Ser33/Ser37/Thr4l; Cell Signaling) in Tris-buffered saline, 3% bovine serum albumin, then for 1 hr with goat antibody to rabbit IgG conjugated with Alexa Fluor 488 (Molecular Probes). Immunostaining for sarcomeric myosin heavy chains (MHC) was performed using fluorescein isothiocyanate-conjugated MF20 antibody (Oh et al., 2001). Nuclei were counterstained with DAPI.
Cells were seeded on 6-well dishes (1.67×10^6 cells/well) and cultivated with or without 1% DMSO and 500 ng/ml Fx/FC chimeric protein. After 3 days, cells were harvested in phosphate-buffered saline in 4 C, centrifuged, and resuspended in 20 mM Tris-HCl, pH 7.5, 25 mM sodium fluoride, 1 mM EDTA, containing a protease inhibitor cocktail (Roche Molecular Biochemicals). Cells were incubated on ice for 20 min, followed by 30 strokes in a Dounce homogenizer, and centrifuged at 100,000×g for 30 min. The supernatant was collected as the soluble, cytoplasmic fraction and electrophoresised in 10% SDS-polyacrylamide gels. […]

P19CL6 cells [4] = test: Sarcomeric MHC immunostaining (MF20-positive cells); parameters: dose or concentration left out as unconfirmed; details: LiCl, day 12
Method: as §2

SMILES	time to expression of Nkx2.5, GATA4, MEF2C, and Tbx5 as early stage markers (P19CL6 cells [1]; 1% DMSO treatment, QRT-PCR) [days]	Wnt3A and Wnt8A induced as early as (P19CL6 cells [1]; after DMSO treatment, expression greatest on day 3) [days]	spontaneous beating visible (P19CL6 cells [2]; 1% DMSO treatment) [days]	increase in luciferase activity (TCF-dependent transcriptional activity) [3] [fold]	phosphorylated β-catenin (β-catenin; DMSO treatment for 3 days, immunoblotting and immunocytochemistry)	soluble (cytosolic) β-catenin level (β-catenin; DMSO, day 3, Western blot)	MF20-positive cells (P19CL6 cells [4])	expression of Nkx2.5, GATA4, Tbx5, BMP2, BMP4 (P19CL6 cells [1]; d 5, QRT-PCR)	effect on each of the early cardiac markers and on sarcomeric MHC (P19CL6 cells [1]; in the absence of DMSO)	spontaneous beating (P19CL6 cells [2]; treated alone, without DMSO)
C[S+](C)[O-] [DMSO]	3 to 8	2	9 to 10	9	decreased	accumulation of soluble β-catenin				
[Cl-].[Li+] [LiCl]							significantly increased	significantly increased	inductive effect	did not show spontaneous beating
